From patent US6710168B1, “Glycopeptide antibiotics, combinatorial libraries of glycopeptide antibiotics and methods of producing same” (The Trustees of the University of Princeton, priority 1999, dated 2004)
In brackets after ≈: the same amount, converted by molar mass.

How the values were obtained:
Type in all cases: cell-based
[1] = system: gentamicin, streptmycin, vancomycin resistant Enterococcus faecalis (ATCC 51299); experiment: microbe, parasite or virus in culture; conditions: for MIC: Enterococcus faecalis, ATCC51299, read-out: MIC VREF; for MIC VREF: Enterococcus faecalis ATCC51299, vancomycin resistance
Procedure: (§1) Evaluation of vancomycin analogs is performed using in vitro susceptibility tests and a time-kill assay. [NCCL Standard, 1993] In susceptibility tests, five strains of bacteria, two of the most important: Staphylococcus aureus and Enterococcus faecalis (both susceptible and resistant strains), and Bacillus cereus are chosen and bacteria viability remaining in each well is evaluated using a colorimetric assay based on the tetrazolium salt 3-(4,5-dimethyl-2-thiazolyl)-2,5-diphenyl-2H tetrazolium bromide (MTT) and minimum inhibitory concentration (MIC) values are determined as μg/mL. [Mosmann, T. (1983); Damour, O., et al. (1992); Mikami, Y., et al. (1994)] This assay gives susceptibility information quickly, efficiently, and clearly.
(§2) All strains [Bacillus cereus (ATCC® 11778), Staphylococcus aureus (ATCC® 29213), Methicillin resistant Staphylococcus aureus (ATCC® 33591), Enterococcus faecalis (ATCC® 29212), and gentamicin, streptmycin, vancomycin resistant Enterococcus faecalis (ATCC® 51299), are purchased from REMEL (Lenexa, Kans.).
(§3) MICs are determined by the microdilution method using 96-well microplates. Samples are suspended with Cation Adjusted (20 to 25 mg of Ca^2+/mL and 10 to […] of Mg^2+) Mueller-Hinton broth (Difco Laboratories, Detroit, Mich.) and are two-fold diluted from 5 μg/mL to […] on microplates (12 step dilution). To each well, which contained 100 μL of cell suspension (10^6 CFU/mL), 100 μL of antibiotic solution is added and the plates are incubated at 37° C. for 24 h. 50 μL of MTT solution (1 mg/mL) is added to each well, then the plates are incubated under the same conditions (incubation time; 30 min for Bacillus cereus, Staphylococcus aureus, and Methicillin resistant Staphylococcus aureus; 2 hours for Enterococcus faecalis and Gentamicin, Streptmycin, Vancomycin Enterococcus faecalis). MTT is a yellow tetrazolium salt that is reduced by mitochondrial enzymes in viable cells to an insoluble blue formazan product. MIC values are evaluated by observing the lowest drug concentration to inhibit bacteria growth.

[2] = system: Enterococcus faecium CL5137, VanA; experiment: MIC susceptibility test; conditions: Enterococcus faecium CL5137, VanA; for MIC: read-out: MIC CL5137
[3] = system: Bacillus cereus (ATCC 11778); experiment: MIC susceptibility test, microdilution with MTT readout; conditions: for MIC: Bacillus cereus, ATCC11778, read-out: MIC BC; for MIC BC: Bacillus ceres ATCC11778
Procedure: as §1, §2, §3

[4] = system: Methicillin resistant Staphylococcus aureus (ATCC 33591); experiment: as above; conditions: Staphylococcus aureus ATCC3359, Methicillin resistance; for MIC: ATCC 3359 / ATCC 33591 / MRSA, read-out: MIC MRSA
Procedure: as §1, §2, §3

[5] = system: Enterococcus faecalis (ATCC 29212); experiment: as above; conditions: Enterococcus faecalis ATCC29212; for MIC: read-out: MIC EF
Procedure: as §1, §2, §3

[6] = system: Staphylococcus aureus (ATCC 29213); experiment: as above; conditions: Staphylococcus aureus ATCC29213; for MIC: read-out: MIC SA
Procedure: as §1, §2, §3

[7] = system: Enterococcus faecalis CL5244, VanB; experiment: MIC susceptibility test; conditions: Enterococcus faecalis CL5244, VanB; for MIC: read-out: MIC CL5244
Procedure: as §1, §3

Row | SMILES | MIC [1] [µg/mL] | MIC [2] [µg/mL] | MIC [3] [µg/mL] | MIC [4] [µg/mL] | MIC [5] [µg/mL] | MIC [6] [µg/mL] | MIC [7] [µg/mL] | MIC VREF [1] [µg/mL] | MIC CL5137 [2] | MIC BC [3] [µg/mL] | MIC MRSA [4] [µg/mL] | MIC EF [5] [µg/mL] | MIC SA [6] [µg/mL] | MIC CL5244 [7] [µg/mL]
1 | CN[C@@H](CC(C)C)C(=O)N[C@H]1C(=O)N[C@@H](CC(N)=O)C(=O)N[C@H]2C(=O)NC3C(=O)N[C@H](C(=O)N[C@@H](C(=O)O)c4cc(O)cc(O)c4-c4cc3ccc4O)[C@H](O)c3ccc(c(Cl)c3)Oc3cc2cc(c3OC2OC(CSc3ccc(Br)cc3)C(O)C(O)C2OC2CC(C)(N)C(O)C(C)O2)Oc2ccc(cc2Cl)[C@H]1O (some centres unmarked) [LIX, Glucose-C6-1-thio-4-bromobenzene Vancomycin] | 0.32 (≈ 0.197 µM) | > 50 | 1.3 (≈ 0.802 µM) | 1 (≈ 0.617 µM) | 1 (≈ 0.617 µM) | 0.63 (≈ 0.389 µM) | 6.3 (≈ 3.89 µM) |  |  |  |  |  |  | 
2 | CNC(CC(C)C)C(=O)NC1C(=O)NC(CC(N)=O)C(=O)NC2C(=O)NC3C(=O)NC(C(=O)NC(C(=O)O)c4cc(O)cc(O)c4-c4cc3ccc4O)C(O)c3ccc(c(Cl)c3)Oc3cc2cc(c3OC2OC(CNCc3ccc(-c4ccc(Cl)cc4)o3)C(O)C(O)C2OC2CC(C)(N)C(O)C(C)O2)Oc2ccc(cc2Cl)C1O (centres unmarked) [XXX, Glucose-C6-N-5-(4-chlorophenyl)furan-1-methylene Vancomycin] |  |  |  |  |  |  |  | 0.63 (≈ 0.384 µM) | 50< μg/mL | 0.63 (≈ 0.384 µM) | 0.32 (≈ 0.195 µM) | 0.63 (≈ 0.384 µM) | 0.32 (≈ 0.195 µM) | 1.6 (≈ 0.976 µM)
3 | CN[C@@H](CC(C)C)C(=O)N[C@H]1C(=O)N[C@@H](CC(N)=O)C(=O)N[C@H]2C(=O)NC3C(=O)N[C@H](C(=O)N[C@@H](C(=O)O)c4cc(O)cc(O)c4-c4cc3ccc4O)[C@H](O)c3ccc(c(Cl)c3)Oc3cc2cc(c3OC2OC(CSc3nc(C)cc(O)n3)C(O)C(O)C2OC2CC(C)(N)C(O)C(C)O2)Oc2ccc(cc2Cl)[C@H]1O (some centres unmarked) [LXXVIII, Glucose-C6-2-thio-4-hydroxy-6-methylpyrimidine Vancomycin] | 2.5 (≈ 1.59 µM) | > 50 | 0.63 (≈ 0.4 µM) | 1.3 (≈ 0.826 µM) | 0.63 (≈ 0.4 µM) | 1 (≈ 0.636 µM) | 6.3 (≈ 4 µM) |  |  |  |  |  |  | 
4 | CNC(CC(C)C)C(=O)NC1C(=O)NC(CC(N)=O)C(=O)NC2C(=O)NC3C(=O)NC(C(=O)NC(C(=O)O)c4cc(O)cc(O)c4-c4cc3ccc4O)C(O)c3ccc(c(Cl)c3)Oc3cc2cc(c3OC2OC(CO)C(O)C(O)C2OC2CC(C)(NCc3ccc(-c4ccc(Cl)cc4)cc3)C(O)C(C)O2)Oc2ccc(cc2Cl)C1O (centres unmarked) [N-4-(4-chlorophenyl)benzyl vancomycin, reference compound] |  |  |  |  |  |  |  | 0.08 (≈ 0.0485 µM) | 13 µg/mL (≈ 7.88 µM) | 0.08 (≈ 0.0485 µM) | 0.08 (≈ 0.0485 µM) | 0.08 (≈ 0.0485 µM) | 0.16 (≈ 0.097 µM) | 0.4 (≈ 0.242 µM)
5 | CNC(CC(C)C)C(=O)NC1C(=O)NC(CC(N)=O)C(=O)NC2C(=O)NC3C(=O)NC(C(=O)NC(C(=O)O)c4cc(O)cc(O)c4-c4cc3ccc4O)C(O)c3ccc(c(Cl)c3)Oc3cc2cc(c3OC2OC(CSc3nc(N)n[nH]3)C(O)C(O)C2OC2CC(C)(N)C(O)C(C)O2)Oc2ccc(cc2Cl)C1O (centres unmarked) [LVI, Glucose-C6-3-amino-5-mercapto-1,2,4-triazole Vancomycin] |  |  |  |  |  |  |  | 0.63 (≈ 0.407 µM) | 50< μg/mL | 1.0 (≈ 0.646 µM) | 0.63 (≈ 0.407 µM) | 0.63 (≈ 0.407 µM) | 0.48 (≈ 0.31 µM) | 1.6 (≈ 1.03 µM)
6 | CN[C@@H](CC(C)C)C(=O)N[C@H]1C(=O)N[C@@H](CC(N)=O)C(=O)N[C@H]2C(=O)NC3C(=O)N[C@H](C(=O)N[C@@H](C(=O)O)c4cc(O)cc(O)c4-c4cc3ccc4O)[C@H](O)c3ccc(c(Cl)c3)Oc3cc2cc(c3OC2OC(CNC(=O)C(F)(F)F)C(O)C(O)C2OC2CC(C)(N)C(O)C(C)O2)Oc2ccc(cc2Cl)[C@H]1O (some centres unmarked) [XL, Glucose-C6-trifluoroacetamide Vancomycin] | 5 (≈ 3.24 µM) | > 50 | 1.3 (≈ 0.842 µM) | 1 (≈ 0.648 µM) | 1.3 (≈ 0.842 µM) | 0.48 (≈ 0.311 µM) | 25 (≈ 16.2 µM) |  |  |  |  |  |  | 
7 | CN[C@@H](CC(C)C)C(=O)N[C@H]1C(=O)N[C@@H](CC(N)=O)C(=O)N[C@H]2C(=O)NC3C(=O)N[C@H](C(=O)N[C@@H](C(=O)O)c4cc(O)cc(O)c4-c4cc3ccc4O)[C@H](O)c3ccc(c(Cl)c3)Oc3cc2cc(c3OC2OC(CSc3nnc(C)c(O)n3)C(O)C(O)C2OC2CC(C)(NCc3ccc(-c4ccc(Cl)cc4)cc3)C(O)C(C)O2)Oc2ccc(cc2Cl)[C@H]1O (some centres unmarked) [LXXXVI, N-4-(4-Chlorophenyl)benzylvancosamine-glucose-C6-2-thio-6-azathymine Vancomycin] | 0.16 (≈ 0.0901 µM) | 3.2 (≈ 1.8 µM) | 0.32 (≈ 0.18 µM) | 1 (≈ 0.563 µM) | 0.12 (≈ 0.0676 µM) | 1 (≈ 0.563 µM) | 0.4 (≈ 0.225 µM) |  |  |  |  |  |  | 
8 | CN[C@@H](CC(C)C)C(=O)N[C@H]1C(=O)N[C@@H](CC(N)=O)C(=O)N[C@H]2C(=O)NC3C(=O)N[C@H](C(=O)N[C@@H](C(=O)O)c4cc(O)cc(O)c4-c4cc3ccc4O)[C@H](O)c3ccc(c(Cl)c3)Oc3cc2cc(c3OC2OC(CSc3nc(N)cc(N)n3)C(O)C(O)C2OC2CC(C)(N)C(O)C(C)O2)Oc2ccc(cc2Cl)[C@H]1O (some centres unmarked) [LXII, Glucose-C6-6-thio-2,4-diaminopyrimidine Vancomycin] | 1.3 (≈ 0.826 µM) | > 50 | 0.63 (≈ 0.4 µM) | 2.5 (≈ 1.59 µM) | 1.3 (≈ 0.826 µM) | 1.9 (≈ 1.21 µM) | 6.3 (≈ 4 µM) |  |  |  |  |  |  | 
9 | CN[C@@H](CC(C)C)C(=O)N[C@H]1C(=O)N[C@@H](CC(N)=O)C(=O)N[C@H]2C(=O)NC3C(=O)N[C@H](C(=O)N[C@@H](C(=O)O)c4cc(O)cc(O)c4-c4cc3ccc4O)[C@H](O)c3ccc(c(Cl)c3)Oc3cc2cc(c3OC2OC(CSc3nnc(N)s3)C(O)C(O)C2OC2CC(C)(NCc3ccc(-c4ccc(Cl)cc4)cc3)C(O)C(C)O2)Oc2ccc(cc2Cl)[C@H]1O (some centres unmarked) [LXXXIII, N-4-(4-Chlorophenyl)benzylvancosamine-glucose-C6-2-thio-5-amino-1,3,4-thiadiazole Vancomycin] | 0.32 (≈ 0.181 µM) | 3.2 (≈ 1.81 µM) | 0.32 (≈ 0.181 µM) | 0.48 (≈ 0.272 µM) | 0.16 (≈ 0.0906 µM) | 0.48 (≈ 0.272 µM) | 0.2 (≈ 0.113 µM) |  |  |  |  |  |  | 
10 | CN[C@H](CC(C)C)C(=O)N[C@H]1C(=O)N[C@@H](CC(N)=O)C(=O)N[C@H]2C(=O)N[C@H]3C(=O)N[C@H](C(=O)N[C@H](C(=O)O)c4cc(O)cc(O)c4-c4cc3ccc4O)[C@H](O)c3ccc(c(Cl)c3)Oc3cc2cc(c3OC2OC(CSc3nc(N)n[nH]3)C(O)C(O)C2OC2CC(C)(NCc3ccc(-c4ccc(Cl)cc4)cc3)C(O)C(C)O2)Oc2ccc(cc2Cl)[C@H]1O (some centres unmarked) [LXXIII, Vancosamine-N-4-(4-chlorophenyl)benzyl, Glucose-C6-S-3-amino-5-mercapto-1,2,4-triazole Vancomycin] | 0.08 (≈ 0.0458 µM) | 3.2 (≈ 1.83 µM) | 0.48 (≈ 0.275 µM) | 1 (≈ 0.572 µM) | 0.16 (≈ 0.0915 µM) | 1.9 (≈ 1.09 µM) | 0.2 (≈ 0.114 µM) |  |  |  |  |  |  | 
11 | CCCCCCCCCCNC1(C)CC(OC2C(Oc3c4cc5cc3Oc3ccc(cc3Cl)[C@@H](O)[C@@H](NC(=O)[C@H](CC(C)C)NC)C(=O)N[C@@H](CC(N)=O)C(=O)N[C@H]5C(=O)NC3C(=O)N[C@H](C(=O)N[C@@H](C(=O)O)c5cc(O)cc(O)c5-c5cc3ccc5O)[C@H](O)c3ccc(c(Cl)c3)O4)OC(CSc3nc(-c4ccccc4)c(-c4ccccc4)o3)C(O)C2O)OC(C)C1O (some centres unmarked) [LXXXII, N-Decylvancosamine-glucose-C6-2-thio-4,5-diphenyloxazole Vancomycin] | > 5 | > 50 | > 5 | > 5 | > 5 | > 5 | 13 (≈ 7.12 µM) |  |  |  |  |  |  | 
